This passage reports CC50 and EC50 results from patent US20250122219A1 (priority 2023, published 2025).

The term CC50 denotes the concentration at which the toxic effect on the cells reaches its halfway point. The EC50 is the concentration giving half of the maximal effect.

A short description of series [1]: Cytotoxicity assay in MT-4 cells. The series is classed as cell-based. The note with it: human; uninfected MT-4 cells, 5 days incubation, Cell Titer Glo; read-out: MT4 CC50. In outline:
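Uninfected MT-4 cells exposed to serially diluted compounds in RPMI with 10% FBS for 5 days at 37 °C. Viability by Cell Titer Glo chemiluminescence. Puromycin […] as baseline cytotoxicity control.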

Series [2] deals with HIV-1 (IIIB). Kind of series: Antiviral assay in MT-4 cells. The series is classed as cell-based. The method, then:
Compounds were tested in a high-throughput 384-well assay format for their ability to inhibit the replication of HIV-1 (IIIB) in MT-4 cells. Compounds were serially diluted (1.3) in DMSO on 384-well polypropylene plates and further diluted 200-fold into complete RPMI media (10% FBS, 1% P/S) using the Biotek Micro Flow and Labcyte ECHO acoustic dispenser. Each plate contained up to 8 test compounds, with negative (No Drug Control) and 5 μM AZT positive controls. MT-4 cells were pre-infected with 10 μL of either RPMI (mock-infected) or a fresh 1:250 dilution of HIV-1 IIIB concentrated virus stock. Infected and uninfected MT-4 cells were further diluted in complete RPMI media and added to each plate using a Micro Flow dispenser. After 5 days incubation in a humidified and temperature controlled incubator (37° C.), Cell Titer Glo (Promega) was added to the assay plates and chemiluminescence read using an Envision plate-reader.

Where [3] appears, read: Human immunodeficiency virus 1, MT4, 120 h, HIV-1 IIIB in MT-4 cells, 5 days incubation, Cell Titer Glo, read-out: MT4 EC50.
The mark [4] stands for this setting: Human immunodeficiency virus 1, IIIB, MT4, 120 h, read-out: MT4 EC50 (nM).

Like-named read-outs stand apart in the source and are kept apart here.

Turning to `COCCOC(=O)Oc1c2n(cc(C(=O)NCc3ccc(F)cc3F)c1=O)[C@@H]1CN(C2=O)[C@@H](C)CC[C@]12CC(C)=NO2` [Example 9, (3′S,5S,7′R)-10′-((2,4-difluorobenzyl)carbamoyl)-3,3′-dimethyl-1′,11′-dioxo-1′,4′,5′,11′-tetrahydro-3′H,4H,7′H-spiro[isoxazole-5,6′-[2,7]methanopyrido[1,2-a][1,4]diazonin]-12′-yl (2-methoxyethyl) carbonate], the CC50 at 5 days in series [1] turned out to be 19600 nM. In addition, the EC50 in series [2] (setting [3]) turned out to be 1.61 nM.
On to `CCCCCCCCCCCCCC(=O)Oc1c2n(cc(C(=O)NCc3ccc(F)cc3F)c1=O)[C@@H]1CN(C2=O)[C@@H](C)CC[C@]12CC(C)=NO2` [Example 13, (3′S,5S,7′R)-10′-((2,4-difluorobenzyl)carbamoyl)-3,3′-dimethyl-1′,11′-dioxo-1′,4′,5′,11′-tetrahydro-3′H,4H,7′H-spiro[isoxazole-5,6′-[2,7]methanopyrido[1,2-a][1,4]diazonin]-12′-yl tetradecanoate], for which the CC50 at 5 days in series [1] came out at 13400 nM. Moreover, in series [2] (setting [3]), the EC50 is 4.84 nM.
Turning to `CCCCCCCCCCCCCCCC(=O)Oc1c2n(cc(C(=O)NCc3ccc(F)cc3F)c1=O)[C@@H]1CN(C2=O)[C@@H](C)CC[C@]12CC(C)=NO2` [Example 14, (3′S,5S,7′R)-10′-((2,4-difluorobenzyl)carbamoyl)-3,3′-dimethyl-1′,11′-dioxo-1′,4′,5′,11′-tetrahydro-3′H,4H,7′H-spiro[isoxazole-5,6′-[2,7]methanopyrido[1,2-a][1,4]diazonin]-12′-yl palmitate], the CC50 at 5 days in series [1] was ≥ 50000 nM. The EC50 in series [2] (setting [3]) amounted to 6.46 nM.
For the compound `CC1=NO[C@@]2(CC[C@H](C)N3C[C@H]2n2cc(C(=O)NCc4ccc(F)cc4F)c(=O)c(OCOC(=O)C(C)(C)C)c2C3=O)C1` [Example 18, (((3′S,5S,7′R)-10′-((2,4-difluorobenzyl)carbamoyl)-3,3′-dimethyl-1′,11′-dioxo-1′,4′,5′,11′-tetrahydro-3′H,4H,7′H-spiro[isoxazole-5,6′-[2,7]methanopyrido[1,2-a][1,4]diazonin]-12′-yl)oxy)methyl pivalate], the CC50 at 5 days in series [1] worked out at 20100 nM. Further, the EC50 in series [2] (setting [3]) was found to be 2.76 nM.
As for `COCCOCCOC(=O)OCOc1c2n(cc(C(=O)NCc3ccc(F)cc3F)c1=O)[C@@H]1CN(C2=O)[C@@H](C)CC[C@]12CC(C)=NO2` [Example 23, (((3′S,5S,7′R)-10′-((2,4-difluorobenzyl)carbamoyl)-3,3′-dimethyl-1′,11′-dioxo-1′,4′,5′,11′-tetrahydro-3′H,4H,7′H-spiro[isoxazole-5,6′-[2,7]methanopyrido[1,2-a][1,4]diazonin]-12′-yl)oxy)methyl (2-(2-methoxyethoxy)ethyl) carbonate], the CC50 at 5 days in series [1] was found to be 27300 nM. Moreover, the EC50 in series [2] (setting [3]) came to 2.79 nM.
Turning to `COC1=NO[C@@]2(CC[C@H](C)N3C[C@H]2n2cc(C(=O)NCc4ccc(F)cc4F)c(=O)c(OC(=O)/C=C/C(=O)O)c2C3=O)C1` [Example 25, (E)-4-(((3′S,5S,7′R)-10′-((2,4-difluorobenzyl)carbamoyl)-3-methoxy-3′-methyl-1′,11′-dioxo-1′,4′,5′,11′-tetrahydro-3′H,4H,7′H-spiro[isoxazole-5,6′-[2,7]methanopyrido[1,2-a][1,4]diazonin]-12′-yl)oxy)-4-oxobut-2-enoic acid], the CC50 at 5 days in series [1] is 16200 nM. Further, the 50% effective concentration (EC50) in series [2] (setting [4]) amounted to 1.9 nM.
Consider `CCCCCCCCCCCCCC(=O)Oc1c2n(cc(C(=O)NCc3ccc(F)cc3F)c1=O)[C@@H]1CN(C2=O)[C@@H](C)CC[C@]12CC(OC)=NO2` [Example 26, (3′S,5S,7′R)-10′-((2,4-difluorobenzyl)carbamoyl)-3-methoxy-3′-methyl-1′,11′-dioxo-1′,4′,5′,11′-tetrahydro-3′H,4H,7′H-spiro[isoxazole-5,6′-[2,7]methanopyrido[1,2-a][1,4]diazonin]-12′-yl tetradecanoate], for which, in series [1], the CC50 at 5 days turned out to be 22600 nM. In series [2] (setting [3]), the EC50 was determined as 2.62 nM.
Taken in the same sequence, the figures for `CCCCCCCCCCCCCCCC(=O)Oc1c2n(cc(C(=O)NCc3ccc(F)cc3F)c1=O)[C@@H]1CN(C2=O)[C@@H](C)CC[C@]12CC(OC)=NO2` [Example 27, (3′S,5S,7′R)-10′-((2,4-difluorobenzyl)carbamoyl)-3-methoxy-3′-methyl-1′,11′-dioxo-1′,4′,5′,11′-tetrahydro-3′H,4H,7′H-spiro[isoxazole-5,6′-[2,7]methanopyrido[1,2-a][1,4]diazonin]-12′-yl palmitate] were ≥ 50000 nM and 4.5 nM.
Taken in the same sequence, the figures for `COC1=NO[C@@]2(CC[C@H](C)N3C[C@H]2n2cc(C(=O)NCc4ccc(F)cc4F)c(=O)c(OC(C)=O)c2C3=O)C1` [Example 28, (3′S,5S,7′R)-10′-((2,4-difluorobenzyl)carbamoyl)-3-methoxy-3′-methyl-1′,11′-dioxo-1′,4′,5′,11′-tetrahydro-3′H,4H,7′H-spiro[isoxazole-5,6′-[2,7]methanopyrido[1,2-a][1,4]diazonin]-12′-yl acetate] were 11600 nM and 1.72 nM.
With `CCCCC(=O)Oc1c2n(cc(C(=O)NCc3ccc(F)cc3F)c1=O)[C@@H]1CN(C2=O)[C@@H](C)CC[C@]12CC(OC)=NO2` [Example 29, (3′S,5S,7′R)-10′-((2,4-difluorobenzyl)carbamoyl)-3-methoxy-3′-methyl-1′,11′-dioxo-1′,4′,5′,11′-tetrahydro-3′H,4H,7′H-spiro[isoxazole-5,6′-[2,7]methanopyrido[1,2-a][1,4]diazonin]-12′-yl pentanoate], the 50% cytotoxic concentration (CC50) at 5 days in series [1] came to 12300 nM. Further, in series [2] (setting [3]), the EC50 was found to be 1.61 nM.
On to `COC1=NO[C@@]2(CC[C@H](C)N3C[C@H]2n2cc(C(=O)NCc4ccc(F)cc4F)c(=O)c(OC(=O)OC(C)C)c2C3=O)C1` [Example 30, (3′S,5S,7′R)-10′-((2,4-difluorobenzyl)carbamoyl)-3-methoxy-3′-methyl-1′,11′-dioxo-1′,4′,5′,11′-tetrahydro-3′H,4H,7′H-spiro[isoxazole-5,6′-[2,7]methanopyrido[1,2-a][1,4]diazonin]-12′-yl isopropyl carbonate], for which the CC50 at 5 days in series [1] was determined as 12600 nM. For the same compound, the EC50 in series [2] (setting [4]) amounted to 1.3 nM.
Turning to `CCCC/C=C\CCCCCCCC(=O)Oc1c2n(cc(C(=O)NCc3ccc(F)cc3F)c1=O)[C@@H]1CN(C2=O)[C@@H](C)CC[C@]12CC(OC)=NO2` [Example 31, (3′S,5S,7′R)-10′-((2,4-difluorobenzyl)carbamoyl)-3-methoxy-3′-methyl-1′,11′-dioxo-1′,4′,5′,11′-tetrahydro-3′H,4H,7′H-spiro[isoxazole-5,6′-[2,7]methanopyrido[1,2-a][1,4]diazonin]-12′-yl (Z)-tetradec-9-enoate], in series [1], the CC50 at 5 days turned out to be 15700 nM. Moreover, the EC50 in series [2] (setting [3]) was determined as 2.39 nM.
In the case of `CCC(=O)Oc1c2n(cc(C(=O)NCc3ccc(F)cc3F)c1=O)[C@@H]1CN(C2=O)[C@@H](C)CC[C@]12CC(OC)=NO2` [Example 32, (3′S,5S,7′R)-10′-((2,4-difluorobenzyl)carbamoyl)-3-methoxy-3′-methyl-1′,11′-dioxo-1′,4′,5′,11′-tetrahydro-3′H,4H,7′H-spiro[isoxazole-5,6′-[2,7]methanopyrido[1,2-a][1,4]diazonin]-12′-yl propionate], in series [1], the CC50 at 5 days is 31700 nM. Also, the EC50 in series [2] (setting [3]) was found to be 1.18 nM.
For the compound `CCC(=O)Oc1c2n(cc(C(=O)NCc3ccc(F)cc3F)c1=O)[C@@H]1CN(C2=O)[C@@H](C)CC[C@]12CC(C)=NO2` [Example 33, (3′S,5S,7′R)-10′-((2,4-difluorobenzyl)carbamoyl)-3,3′-dimethyl-1′,11′-dioxo-1′,4′,5′,11′-tetrahydro-3′H,4H,7′H-spiro[isoxazole-5,6′-[2,7]methanopyrido[1,2-a][1,4]diazonin]-12′-yl propionate], in series [1], the CC50 at 5 days is 22600 nM. Further, the EC50 in series [2] (setting [3]) came to 1.42 nM.
Take `CCCC(=O)Oc1c2n(cc(C(=O)NCc3ccc(F)cc3F)c1=O)[C@@H]1CN(C2=O)[C@@H](C)CC[C@]12CC(OC)=NO2` [Example 34, (3′S,5S,7′R)-10′-((2,4-difluorobenzyl)carbamoyl)-3-methoxy-3′-methyl-1′,11′-dioxo-1′,4′,5′,11′-tetrahydro-3′H,4H,7′H-spiro[isoxazole-5,6′-[2,7]methanopyrido[1,2-a][1,4]diazonin]-12′-yl butyrate]: in series [1], the CC50 at 5 days was 16300 nM. Further, the EC50 in series [2] (setting [3]) turned out to be 0.218 nM.
For the compound `CCCC(=O)Oc1c2n(cc(C(=O)NCc3ccc(F)cc3F)c1=O)[C@@H]1CN(C2=O)[C@@H](C)CC[C@]12CC(C)=NO2` [Example 35, (3′S,5S,7′R)-10′-((2,4-difluorobenzyl)carbamoyl)-3,3′-dimethyl-1′,11′-dioxo-1′,4′,5′,11′-tetrahydro-3′H,4H,7′H-spiro[isoxazole-5,6′-[2,7]methanopyrido[1,2-a][1,4]diazonin]-12′-yl butyrate], the CC50 at 5 days in series [1] came out at 14100 nM. The EC50 in series [2] (setting [3]) came to 0.203 nM.
On to `CCCCCC(=O)Oc1c2n(cc(C(=O)NCc3ccc(F)cc3F)c1=O)[C@@H]1CN(C2=O)[C@@H](C)CC[C@]12CC(OC)=NO2` [Example 36, (3′S,5S,7′R)-10′-((2,4-difluorobenzyl)carbamoyl)-3-methoxy-3′-methyl-1′,11′-dioxo-1′,4′,5′,11′-tetrahydro-3′H,4H,7′H-spiro[isoxazole-5,6′-[2,7]methanopyrido[1,2-a][1,4]diazonin]-12′-yl hexanoate], for which the CC50 at 5 days in series [1] is 19600 nM. Moreover, the EC50 in series [2] (setting [3]) was found to be 0.345 nM.
